# Experimental data: US20220204497A1, “NOVEL COMPOUND HAVING ANTICANCER ACTIVITY, AND METHOD FOR PRODUCING SAME” (MEDICINAL BIOCONVERGENCE RESEARCH CENTER, priority 2019, published 2022)
# System: A549 cells
# Assay: Cell viability by MTT method in A549 cells
# Type: cell-based
# Set-up: concentration or dose not given beside the values
# Conditions: 72 hours treatment
row,Structure (SMILES),Cell Viability (% inhibition) (A549)
1,"Cc1ccc(S(=O)(=O)N[C@@H](CC(C)C)C(=O)N2CCOCC2)cc1 [Compound 1, (S)-4-methyl-N-(4-methyl-1-morpholino-1-oxopentan-2-yl)benzenesulfonamide]",17.79%
2,"Cc1ccc(S(=O)(=O)N[C@H](CC(C)C)C(=O)N2CCOCC2)cc1 [Compound 2, (R)-4-methyl-N-(4-methyl-1-morpholino-1-oxopentan-2-yl)benzenesulfonamide]",29.46%
3,"Cc1ccc(S(=O)(=O)N[C@@H](CC(C)C)C(=O)Nc2ccc(N3CCCCC3)cc2)cc1 [Compound 7, (S)-4-methyl-2-(4-methylphenylsulfonamido)-N-(4-(piperidin-1-yl)phenyl)pentanamide]",23.48%
4,"Cc1ccc(S(=O)(=O)N[C@@H](CC(C)C)C(=O)Nc2ccc(N3CCC(C)CC3)cc2)cc1 [Compound 8, (S)-4-methyl-2-(4-methylphenylsulfonamido)-N-(4-(4-methylpiperidin-1-yl)phenyl) pentanamide]",24.89%
5,"Cc1ccc(S(=O)(=O)N[C@@H](CC(C)C)C(=O)Nc2ccc(N3CCOCC3)cc2)cc1 [Compound 11, (S)-4-methyl-2-(4-methylphenylsulfonamido)-N-(4-morpholinophenyl)pentanamide]",23.76%
6,"Cc1ccc(S(=O)(=O)N[C@@H](CC(C)C)C(=O)Nc2ccc(N3CCS(=O)(=O)CC3)cc2)cc1 [Compound 15, (S)—N-(4-(1,1-dioxidothiomorpholino)phenyl)-4-methyl-2-(4-methylphenylsulfonamido)pentanamide]",4.86 ± 8.75%
7,"Cc1ccc(S(=O)(=O)N[C@@H](CC(C)C)C(=O)Nc2ccc(N3CCCC3)cc2)cc1 [Compound 17, (S)-4-methyl-2-(4-methylphenylsulfonamido)-N-(4-(pyrrolidin-1-yl)phenyl)pentanamide]",20.11%
8,"CC(C)C[C@H](NS(=O)(=O)c1ccc(F)cc1)C(=O)Nc1ccc(N2CCOCC2)cc1 [Compound 21, (S)-2-(4-fluorophenylsulfonamido)-4-methyl-N-(4-morpholinophenyl)pentanamide]",33.04%
9,"CC(C)C[C@H](NS(=O)(=O)c1ccc(Br)cc1)C(=O)Nc1ccc(N2CCOCC2)cc1 [Compound 22, (S)-2-(4-bromophenylsulfonamido)-4-methyl-N-(4-morpholinophenyl)pentanamide]",39.56 ± 5.42%
10,"CC(C)C[C@H](NS(=O)(=O)c1ccccc1)C(=O)Nc1ccc(N2CCOCC2)cc1 [Compound 27, (S)-4-methyl-N-(4-morpholinophenyl)-2-(phenylsulfonamido)pentanamide]",13.51 ± 9.40%
11,"COc1ccc(S(=O)(=O)N[C@@H](CC(C)C)C(=O)Nc2ccc(N3CCOCC3)cc2)cc1 [Compound 29, (S)-2-(4-methoxyphenylsulfonamido)-4-methyl-N-(4-morpholinophenyl)pentanamide]",12.70 ± 4.95%
12,"CC(C)C[C@H](NS(=O)(=O)c1ccc([N+](=O)[O-])cc1)C(=O)Nc1ccc(N2CCOCC2)cc1 [Compound 31, (S)-4-methyl-N-(4-morpholinophenyl)-2-(4-nitrophenylsulfonamido)pentanamide]",33.24 ± 4.95%
13,"CC(C)C[C@H](NS(=O)(=O)c1ccc(-c2ccccc2)cc1)C(=O)Nc1ccc(N2CCOCC2)cc1 [Compound 33, (S)-2-(biphenyl-4-ylsulfonamido)-4-methyl-N-(4-morpholinophenyl)pentanamide]",26.48 ± 3.66%
14,"Cc1ccc(S(=O)(=O)N[C@@H](C)C(=O)Nc2ccc(N3CCOCC3)cc2)cc1 [Compound 44, (S)-2-(4-methylphenylsulfonamido)-N-(4-morpholinophenyl)propanamide]",14.05 ± 4.05%
15,"CSCC[C@H](NS(=O)(=O)c1ccc(C)cc1)C(=O)Nc1ccc(N2CCOCC2)cc1 [Compound 45, (S)-2-(4-methylphenylsulfonamido)-4-(methylthio)-N-(4-morpholinophenyl)butanamide]",12.97 ± 1.24%
16,"Cc1ccc(S(=O)(=O)N[C@@H](Cc2ccccc2)C(=O)Nc2ccc(N3CCOCC3)cc2)cc1 [Compound 48, (S)-2-(4-methylphenylsulfonamido)-N-(4-morpholinophenyl)-3-phenylpropanamide]",45.68 ± 2.92%
17,"COc1ccc(-c2csc(NC(=O)[C@H](Cc3c[nH]c4ccccc34)NS(=O)(=O)c3ccc(Br)cc3)n2)cc1 [Compound 62, (S)-2-(4-Bromophenylsulfonamido)-3-(1H-indol-3-yl)-N-(4-(4-methoxyphenyl)thiazol-2-yl)propanamide]",90.17 ± 0.96%

row,Structure (SMILES),Cell Viability (% inhibition) (A549)
1,"Cc1ccccc1S(=O)(=O)N[C@@H](Cc1c[nH]c2ccccc12)C(=O)Nc1ccc(N2CCOCC2)cc1 [Compound 64, (S)-3-(1H-indol-3-yl)-2-(2-methylphenylsulfonamido)-N-(4-morpholinophenyl)propanamide]",51.75 ± 1.56%
2,"Cc1cccc(S(=O)(=O)N[C@@H](Cc2c[nH]c3ccccc23)C(=O)Nc2ccc(N3CCOCC3)cc2)c1 [Compound 65, (S)-3-(1H-indol-3-yl)-2-(3-methylphenylsulfonamido)-N-(4-morpholinophenyl)propanamide]",74.94 ± 1.04%
3,"Cc1ccc(S(=O)(=O)N[C@H](Cc2c[nH]c3ccccc23)C(=O)Nc2ccc(N3CCOCC3)cc2)cc1 [Compound 76, (R)-3-(1H-indol-3-yl)-2-(4-methylphenylsulfonamido)-N-(4-morpholinophenyl)propanamide]",63.47 ± 0.82%
4,"COC[C@H](C)Oc1ccc(-c2csc(NC(=O)[C@H](CC(C)C)NS(=O)(=O)c3ccc(C)cc3)n2)cc1 [Compound 98, (S)—N-(4-(4((S)-1-methoxypropan-2-yloxy)phenyl)thiazol-2-yl)-4-methyl-2-(4-methylphenylsulfonamido)pentanamide]",76.55 ± 1.52%
5,"Cc1ccc(S(=O)(=O)N[C@@H](CC(C)C)C(=O)Nc2nc(-c3ccc(N4CCOCC4)cc3)cs2)cc1 [Compound 99, (S)-4-Methyl-2-(4-methylphenylsulfonamido)-N-(4-(4-morpholinophenyl)thiazol-2-yl)pentanamide]",73.11 ± 3.83%
6,"COC(=O)c1ccc(-c2csc(NC(=O)[C@H](CC(C)C)NS(=O)(=O)c3ccc(C)cc3)n2)cc1 [Compound 100, (S)-Methyl 4-(2-(4-methyl-2-(4-methylphenylsulfonamido)pentanamido)thiazol-4-yl)benzoate]",79.24 ± 1%
7,"COc1ccc(-c2csc(NC(=O)[C@H](Cc3c[nH]c4ccccc34)NS(=O)(=O)c3ccc(Br)cc3)n2)c(OC)c1 [Compound 108, (S)-2-(4-Bromophenylsulfonamido)-N-(4-(2,4-dimethoxyphenyl)thiazol-2-yl)-3-(1H-indol-3-yl)propanamide]",9.05 ± 7.51%
8,"Cc1ccc(S(=O)(=O)N[C@@H](Cc2cn(C=O)c3ccccc23)C(=O)Nc2ccc(N3CCOCC3)cc2)cc1 [Compound 125, (S)-3-(1-Formyl-1H-indol-3-yl)-2-(4-methylphenylsulfonamido)-N-(4-morpholinophenyl)propanamide]",49.76 ± 2.98%
9,"COc1ccc(-c2cc(NC(=O)[C@H](Cc3c[nH]c4ccccc34)NS(=O)(=O)c3ccc(C)cc3)on2)cc1 [Compound 126, (S)-3-(1H-indol-3-yl)-N-(3-(4-methoxyphenyl)isoxazol-5-yl)-2-(4-methylphenylsulfonamido)propanamide]",85.53 ± 0.66%
10,"Cc1ccc(S(=O)(=O)N[C@@H](CO)C(=O)Nc2ccc(N3CCOCC3)cc2)cc1 [Compound 130, (S)-3-Hydroxy-2-(4-methylphenylsulfonamido)-N-(4-morpholinophenyl)propanamide]",16.62 ± 10.08%
11,"Cc1ccc(S(=O)(=O)N[C@H](C(=O)Nc2ccc(N3CCOCC3)cc2)C(C)C)cc1 [Compound 131, (S)-3-Methyl-2-(4-methylphenylsulfonamido)-N-(4-morpholinophenyl)butanamide]",5.78 ± 7.70%
12,"O=C(Nc1ccccc1)N[C@@H](Cc1c[nH]c2ccccc12)C(=O)N1CCOCC1 [Compound 132, (S)-1-(3-(1H-indol-3-yl)-1-morpholino-1-oxopropan-2-yl)-3-phenylurea]",−11.18 ± 5.31%
13,"Cc1ccc(S(=O)(=O)N[C@@H](Cc2c[nH]c3ccccc23)C(=O)Nc2ccc(N3CCOCC3)nc2)cc1 [Compound 133, (S)-3-(1H-indol-3-yl)-2-(4-methylphenylsulfonamido)-N-(6-morpholinopyridin-3-yl)propanamide]",6.18 ± 6.05%
14,"N#Cc1ccc(S(=O)(=O)N[C@@H](Cc2c[nH]c3ccccc23)C(=O)Nc2ccc(N3CCOCC3)cc2)cc1 [Compound 135, (S)-2-(4-Cyanophenylsulfonamido)-3-(1H-indol-3-yl)-N-(4-morpholinophenyl)propanamide]",55.02 ± 1.06%
15,"O=C(Nc1ccc(N2CCOCC2)cc1)[C@H](Cc1c[nH]c2ccccc12)NS(=O)(=O)c1ccc(C(F)(F)F)nc1 [Compound 136, (S)-3-(1H-indol-3-yl)-N-(4-morpholinophenyl)-2-(6-(trifluoromethyl)pyridine-3-sulfonamido)propanamide]",87.12 ± 2.3%
16,"COC(=O)CC[C@@H](C(=O)Nc1ccc(N2CCOCC2)cc1)N(C)S(=O)(=O)c1ccccc1 [Compound 137, (S)-Methyl 4-(methylphenylsulfonamido)-5-(4-morpholinophenylamino)-5-oxopentanoate]",17.75 ± 5.15%
17,"Cc1ccc(S(=O)(=O)N[C@@H](Cn2cnc3ccccc32)C(=O)Nc2ccc(N3CCOCC3)cc2)cc1 [Compound 138, (S)-3-(1H-benzo[d]imidazol-1-yl)-2-(4-methylphenylsulfonamido)-N-(4-morpholinophenyl)propanamide]",14.63 ± 1.98%
